For 4 compounds, IC50 results are on record in patent publication US11161844B2, “Cyclic substituted imidazo[4,5-c]quinoline derivatives” (Pfizer Inc., priority 2017, dated 2021).

One test addresses mutant G2019S LRRK2 (Homo sapiens (Human), UniProt Q5S007, G2019S). Briefly: LRRK2 kinase assay (Lantha Screen), mutant G2019S. It is filed as biochemical. Particulars: 100 nM LRRKtide, 1 mM ATP, 2 μg/mL enzyme; single determination unless otherwise indicated. As to the method: (§1) LRRK2 kinase activity was measured using Lantha Screen technology from Invitrogen. GST-tagged truncated LRRK2 from Invitrogen (Cat #PV4874) was incubated with a fluorescein-labeled peptide substrate based upon ezrin/radixin/moesin (ERM), also known as LRRKtide (Invitrogen cat #PR8976A), in the presence of a dose response of compound. Upon completion, the assay was stopped and detected with a terbium labeled anti-phospho-ERM antibody (Invitrogen, cat #PR8975A). The assay was carried out under the following protocol: The compound dose response was prepared by diluting compound to a top concentration of 0.3 mM in 100% DMSO and serial diluted by half-log in DMSO to give an 11 point curve, 100× final assay concentration. Using Echo acoustic dispensing, 60 nL of compound was transferred to a low volume Corning 384-well assay plate. 3 μL of a working solution of substrate (200 nM LRRKtide, 2 mM ATP) prepared in assay buffer (50 mM HEPES, pH 7.5, 3 mM MgCl2, with 2 mM DTT and 0.01% Brij35 added fresh) was added to the 60 nL compound assay plate. The kinase reaction was started with 3 μL of a working solution of LRRK2 enzyme at a concentration of 4 μg/mL. The final reaction concentrations were 100 nM LRRKtide, 1 mM ATP, 2 μg/mL LRRK2 enzyme and a compound dose response with a top dose of 3 μM. The reaction was allowed to progress at room temperature for 30 minutes and then stopped with the addition of 6 μL of detection buffer (20 mM Tris pH 7.6, 0.01% NP-40, 6 mM EDTA with 2 nM terbium labeled anti-phospho-ERM). After an incubation of 1 hour at room temperature, the plate was read on an Envision with an excitation wavelength of 340 nm and a reading emission at both 520 nm and 495 nm. The ratio of the 520 nm and 495 nm emission was used to analyze the data. Inhibition of mutant G2019S LRRK2 (Invitrogen cat #PV4881) was measured in the exact same method. All final concentrations of substrate ATP and enzyme were the same.

Test [1] deals with LRRK2, WT (GST-tagged truncated LRRK2) (Homo sapiens (Human), UniProt Q5S007). The experiment in a line: LRRK2 kinase assay (Lantha Screen), wild type. It counts as biochemical. Particulars: 100 nM LRRKtide, 1 mM ATP, 2 μg/mL enzyme; geometric mean of 2-4 determinations unless otherwise indicated. How it is done: as §1
LRRK2, WT (GST-tagged truncated LRRK2), sequence (Q5S007 970-2527): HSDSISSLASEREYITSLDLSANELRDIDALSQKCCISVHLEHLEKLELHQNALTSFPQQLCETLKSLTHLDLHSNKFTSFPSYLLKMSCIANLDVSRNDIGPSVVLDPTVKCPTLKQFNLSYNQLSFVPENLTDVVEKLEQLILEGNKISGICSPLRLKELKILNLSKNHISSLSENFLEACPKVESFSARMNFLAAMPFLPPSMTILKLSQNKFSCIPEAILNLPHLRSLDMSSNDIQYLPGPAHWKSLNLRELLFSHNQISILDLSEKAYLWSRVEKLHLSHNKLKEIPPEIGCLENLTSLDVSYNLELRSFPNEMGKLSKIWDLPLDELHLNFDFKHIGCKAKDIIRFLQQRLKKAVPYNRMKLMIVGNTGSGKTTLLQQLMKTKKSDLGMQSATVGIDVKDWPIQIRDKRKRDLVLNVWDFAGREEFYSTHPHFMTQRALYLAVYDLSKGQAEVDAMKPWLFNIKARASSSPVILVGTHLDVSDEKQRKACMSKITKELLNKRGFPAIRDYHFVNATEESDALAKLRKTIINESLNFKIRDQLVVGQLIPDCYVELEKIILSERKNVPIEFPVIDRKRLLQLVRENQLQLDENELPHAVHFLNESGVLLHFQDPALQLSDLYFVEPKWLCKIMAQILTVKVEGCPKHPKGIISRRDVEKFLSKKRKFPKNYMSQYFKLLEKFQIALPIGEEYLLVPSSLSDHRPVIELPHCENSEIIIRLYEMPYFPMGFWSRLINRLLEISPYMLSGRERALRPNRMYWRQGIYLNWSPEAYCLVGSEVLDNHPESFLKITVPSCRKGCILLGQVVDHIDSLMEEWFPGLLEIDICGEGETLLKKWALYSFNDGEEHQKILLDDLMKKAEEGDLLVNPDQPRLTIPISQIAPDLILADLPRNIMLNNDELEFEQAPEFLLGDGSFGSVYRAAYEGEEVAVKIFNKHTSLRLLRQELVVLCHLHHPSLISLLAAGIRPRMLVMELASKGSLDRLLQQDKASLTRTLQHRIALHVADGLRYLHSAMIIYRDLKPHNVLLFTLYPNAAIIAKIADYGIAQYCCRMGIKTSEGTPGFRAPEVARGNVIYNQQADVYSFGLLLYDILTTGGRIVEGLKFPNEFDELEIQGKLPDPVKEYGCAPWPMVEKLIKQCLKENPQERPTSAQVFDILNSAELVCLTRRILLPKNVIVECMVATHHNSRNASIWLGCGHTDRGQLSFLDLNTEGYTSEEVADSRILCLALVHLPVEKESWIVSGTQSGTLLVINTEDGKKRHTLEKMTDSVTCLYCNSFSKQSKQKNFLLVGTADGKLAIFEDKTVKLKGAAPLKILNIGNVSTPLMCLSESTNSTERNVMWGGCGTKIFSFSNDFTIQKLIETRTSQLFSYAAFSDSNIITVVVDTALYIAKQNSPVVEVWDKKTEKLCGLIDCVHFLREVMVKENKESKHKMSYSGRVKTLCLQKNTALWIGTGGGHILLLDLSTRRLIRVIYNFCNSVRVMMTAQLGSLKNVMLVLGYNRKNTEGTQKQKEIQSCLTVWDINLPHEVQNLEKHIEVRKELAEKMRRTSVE

mutant G2019S LRRK2, sequence (Q5S007 970-2527 G2019S): as the sequence (Q5S007 970-2527) above, with G1050S counted along it

Consider `CN1CC(n2c(C3CCC(F)C3)nc3cnc4ccc(C#N)cc4c32)C(F)(F)C1` (centres unmarked) [Example 57, 1-(4,4-difluoro-1-methylpyrrolidin-3-yl)-2-(3-fluorocyclopentyl)-1H-imidazo[4,5-c]quinoline-8-carbonitrile], for which the IC50 on mutant G2019S LRRK2 was 5.94 nM; in test [1], 4.54 nM.
In the case of `CN1CC(n2c(C3CCC(F)C3)nc3cnc4ccc(C#N)cc4c32)C(F)(F)C1` (centres unmarked) [Example 58, 1-(4,4-difluoro-1-methylpyrrolidin-3-yl)-2-(3-fluorocyclopentyl)-1H-imidazo[4,5-c]quinoline-8-carbonitrile], the IC50 was 21.2 nM against mutant G2019S LRRK2 and 12.2 nM in test [1].
The corresponding values for `CN1CC(n2c(C3CCC(F)C3)nc3cnc4ccc(C#N)cc4c32)C(F)(F)C1` (centres unmarked) [Example 59, 1-(4,4-difluoro-1-methylpyrrolidin-3-yl)-2-(3-fluorocyclopentyl)-1H-imidazo[4,5-c]quinoline-8-carbonitrile] are 141 nM and 30.5 nM.
Take `CN1CC(n2c(C3CCC(F)C3)nc3cnc4ccc(C#N)cc4c32)C(F)(F)C1` (centres unmarked) [Example 60, 1-(4,4-difluoro-1-methylpyrrolidin-3-yl)-2-(3-fluorocyclopentyl)-1H-imidazo[4,5-c]quinoline-8-carbonitrile]: the IC50 on mutant G2019S LRRK2 amounted to 97.4 nM; in test [1], 57.1 nM.
